Assay results taken from US7495011B2 (priority 2003, dated 2009).

Experiments:
SARS virus [1] = experiment: microbe, parasite or virus in culture; assay type: cell-based, SARS-associated coronavirus; conditions: Severe acute respiratory syndrome coronavirus, Vero, read-out: EC50 (concentration required to inhibit cytopathic effects by viral infection to 50% of the control value)
SARS virus [2] = conditions: background art; cited from earlier work
in vitro = conditions: African green monkey
SARS virus [3] = assay type: cell-based, SARS-associated coronavirus; conditions: 10 μM, FIG. 1E
SARS virus [4] = assay type: cell-based, SARS-associated coronavirus; conditions: 10 μM, FIG. 1B
SARS virus [5] = assay type: cell-based, SARS-associated coronavirus; conditions: 10 μM, Vero cells, FIG. 1D

| Structure (SMILES) | EC50 (SARS virus [1]) | Efficacy against the SARS virus as reported in the literature (SARS virus [2]) | CC50 (in vitro) | RNA levels of the SARS virus in Vero cells (RT-PCR) (SARS virus [3]) | Morphology of SARS virus-infected Vero cells (SARS virus [4]) | SARS virus infection by immunofluorescence antibody staining (SARS virus [5]) |
| --- | --- | --- | --- | --- | --- | --- |
| CC1(C)[C@@H](O[C@H]2O[C@H](C(=O)O)[C@@H](O)[C@H](O)[C@H]2O[C@@H]2O[C@H](C(=O)O)[C@@H](O)[C@H](O)[C@H]2O)CC[C@]2(C)[C@H]3C(=O)C=C4[C@@H]5C[C@@](C)(C(=O)O)CC[C@]5(C)CC[C@@]4(C)[C@]3(C)CC[C@@H]12 [Glycyrrhizin, glycyrrhizin] | 364 µM | extremely limited potency | > 24300 µM | – | – | – |
| Cc1c(O)cccc1C(=O)N[C@@H](CSc1ccccc1)[C@H](O)CN1C[C@H]2CCCC[C@H]2C[C@H]1C(=O)NC(C)(C)C [Nelfinavir, nelfinavir] | 0.0484 µM | – | 14.6 µM | highly inhibitive against the propagation of the SARS virus | had the same morphology as normal cells | advantageously controlled |
